Source: US20110009387A1, “HISTONE H2AX (HH2AX) BIOMARKER FOR FTI SENSITIVITY” (priority 2007, published 2011)

What was measured:
[1] = tested on: MiaPaca; experiment: Soft agar growth assay (colony area); type: cell-based; set-up: key to Cells designated sensitive (S) or resistant (R) to lonafarnib: sensitive (S); resistant (R); details: pancreas
Procedure: (§1) Cells were grown in soft agar and the IC50 for lonafarnib was determined. Cells were designated sensitive (S) or resistant (R). The IC50 value was determined by comparing colony areas of the cell lines exposed to the various doses of FTI. IC50 values were calculated with the XLfit program (idbs; Guildford, United Kingdom).
(§2) Growth assays. Soft agar assays were performed in 6-well dishes by seeding 10,000-20,000 cells in each well. Cells were plated in top 0.35% low melting point agarose in DMEM:F12 with 10% fetal bovine serum over a bottom 0.6% agarose feeding layer. Cells were grown in the presence of lonafarnib for 14 days and colonies were stained with 1 mg/ml MIT (dimethylthiazol-diphenyl-terrazolium bromide) in PBS. The plates were scanned and the colony area was determined as the sum of the areas stained by MTT.

[2] = tested on: Panc1; experiment: Soft agar growth assay (colony area); type: cell-based; set-up: key to Cells designated sensitive (S) or resistant (R) to lonafarnib: sensitive (S); resistant (R); details: Panc1, pancreas
Procedure: as §1, §2

[3] = tested on: TOV112D; experiment: Soft agar growth assay (colony area); type: cell-based; set-up: key to Cells designated sensitive (S) or resistant (R) to lonafarnib: sensitive (S); resistant (R); details: ovarian
Procedure: as §1, §2

[4] = tested on: Colo205; experiment: Soft agar growth assay (colony area); type: cell-based; set-up: key to Cells designated sensitive (S) or resistant (R) to lonafarnib: sensitive (S); resistant (R); details: Colo205, colon
Procedure: as §1, §2

[5] = tested on: DU145; experiment: Soft agar growth assay (colony area); type: cell-based; set-up: key to Cells designated sensitive (S) or resistant (R) to lonafarnib: sensitive (S); resistant (R); details: DU145, prostate
Procedure: as §1, §2

[6] = tested on: SKOV3; experiment: Soft agar growth assay (colony area); type: cell-based; set-up: key to Cells designated sensitive (S) or resistant (R) to lonafarnib: sensitive (S); resistant (R); details: SKOV3, ovarian
Procedure: as §1, §2

[7] = tested on: LNCap; experiment: Soft agar growth assay (colony area); type: cell-based; set-up: key to Cells designated sensitive (S) or resistant (R) to lonafarnib: sensitive (S); resistant (R); details: prostate
Procedure: as §1, §2

[8] = tested on: HT29; experiment: Soft agar growth assay (colony area); type: cell-based; set-up: key to Cells designated sensitive (S) or resistant (R) to lonafarnib: sensitive (S); resistant (R); details: HT29, colon
Procedure: as §1, §2

[9] = tested on: A2780; experiment: Soft agar growth assay (colony area); type: cell-based; set-up: key to Cells designated sensitive (S) or resistant (R) to lonafarnib: sensitive (S); resistant (R); details: A2780, ovarian
Procedure: as §1, §2

[10] = tested on: SNB19; experiment: Soft agar growth assay (colony area); type: cell-based; set-up: key to Cells designated sensitive (S) or resistant (R) to lonafarnib: sensitive (S); resistant (R); details: SNB19, glioma
Procedure: as §1, §2

[11] = tested on: DLD-1; experiment: Soft agar growth assay (colony area); type: cell-based; set-up: key to Cells designated sensitive (S) or resistant (R) to lonafarnib: sensitive (S); resistant (R); details: DLD-1, colon
Procedure: as §1, §2

[12] = tested on: SNB75; experiment: Soft agar growth assay (colony area); type: cell-based; set-up: key to Cells designated sensitive (S) or resistant (R) to lonafarnib: sensitive (S); resistant (R); details: SNB75, glioma
Procedure: as §1, §2

[13] = tested on: AsPc1; experiment: Soft agar growth assay (colony area); type: cell-based; set-up: key to Cells designated sensitive (S) or resistant (R) to lonafarnib: sensitive (S); resistant (R); details: AsPc1, pancreas
Procedure: as §1, §2

[14] = tested on: MDA435; experiment: Soft agar growth assay (colony area); type: cell-based; set-up: key to Cells designated sensitive (S) or resistant (R) to lonafarnib: sensitive (S); resistant (R); details: MDA435, breast
Procedure: as §1, §2

[15] = tested on: T47D; experiment: Soft agar growth assay (colony area); type: cell-based; set-up: key to Cells designated sensitive (S) or resistant (R) to lonafarnib: sensitive (S); resistant (R); details: breast
Procedure: as §1, §2

[16] = tested on: MCF7; experiment: Soft agar growth assay (colony area); type: cell-based, human; set-up: key to Cells designated sensitive (S) or resistant (R) to lonafarnib: sensitive (S); resistant (R); details: MCF7, breast
Procedure: as §1, §2

[17] = tested on: MCF-7; experiment: Western blot of phospho-histone H2Ax induction; type: cell-based, human; details: 72 hours, 1000 nM FTI vs DMSO, undetectable basal level
Procedure: (§3) The induction of phospho-histone H2Ax was analyzed by comparing the cellular expression levels of the phosphoprotein following exposure of cells to both DMSO (blank) and lonafarnib. The levels were evaluated by western blot. The quantity of induced phosphoprotein was determined qualitatively and by using densitometric analysis of bands on the blot.
(§4) Western blot protein analysis. Cells were lysed in RIPA buffer (50 mM Tris-HCl, 50 mM NaCl, 1% NP40, 0.5% Na-deoxycholate, 1 mM EDTA, 2.5 mM Na3VO4, 20 mM beta-glycerol phosphate, and complete protease inhibitor) and cleared by centrifugation. Protein concentration was determined using BCA reagent. Samples were separated by 14% SDS-PAGE, transferred to polyvinylidene difluoride (PVDF) membrane, immunoblotted and detected by chemiluminescence using the ECL detection reagents. Polyclonal antibodies used: Histone H2Ax and phos-Histone H2Ax (ser-139) (Cell Signaling Technology, Inc.; Danvers, Mass.). Densitometry was analyzed utilizing Quantity One software (Bio-Rad; Hercules, Calif.). Cells that were analyzed for inducation of phospho-H2Ax by western blot analysis were initially plated on plastic and then treated for 72 hours with 1000 nM of the FTI.

[18] = tested on: MiaPaca; experiment: Western blot of phospho-histone H2Ax induction; type: cell-based; details: 72 hours, 1000 nM FTI vs DMSO, densitometry
Procedure: as §3, §4

[19] = tested on: Panc1; experiment: Western blot of phospho-histone H2Ax induction; type: cell-based; details: 72 hours, 1000 nM FTI vs DMSO
Procedure: as §3, §4

[20] = tested on: TOV112D; experiment: Western blot of phospho-histone H2Ax induction; type: cell-based; details: 72 hours, 1000 nM FTI vs DMSO, undetectable basal level
Procedure: as §3, §4

[21] = tested on: Colo205; experiment: Western blot of phospho-histone H2Ax induction; type: cell-based; details: 72 hours, 1000 nM FTI vs DMSO
Procedure: as §3, §4

[22] = tested on: DU145; experiment: Western blot of phospho-histone H2Ax induction; type: cell-based; details: 72 hours, 1000 nM FTI vs DMSO, densitometry
Procedure: as §3, §4

[23] = tested on: SKOV3; experiment: Western blot of phospho-histone H2Ax induction; type: cell-based; details: 72 hours, 1000 nM FTI vs DMSO, densitometry
Procedure: as §3, §4

[24] = tested on: LNCap; experiment: Western blot of phospho-histone H2Ax induction; type: cell-based; details: 72 hours, 1000 nM FTI vs DMSO, densitometry
Procedure: as §3, §4

[25] = tested on: HT29; experiment: Western blot of phospho-histone H2Ax induction; type: cell-based; details: 72 hours, 1000 nM FTI vs DMSO, densitometry
Procedure: as §3, §4

[26] = tested on: A2780; experiment: Western blot of phospho-histone H2Ax induction; type: cell-based; details: 72 hours, 1000 nM FTI vs DMSO, undetectable basal level
Procedure: as §3, §4

[27] = tested on: MDA-435; experiment: Western blot of phospho-histone H2Ax induction; type: cell-based; details: 72 hours, 1000 nM FTI vs DMSO, densitometry
Procedure: as §3, §4

[28] = tested on: SNB19; experiment: Western blot of phospho-histone H2Ax induction; type: cell-based; details: 72 hours, 1000 nM FTI vs DMSO, undetectable basal level
Procedure: as §3, §4

[29] = tested on: DLD-1; experiment: Western blot of phospho-histone H2Ax induction; type: cell-based; details: 72 hours, 1000 nM FTI vs DMSO, densitometry
Procedure: as §3, §4

[30] = tested on: SNB75; experiment: Western blot of phospho-histone H2Ax induction; type: cell-based; details: 72 hours, 1000 nM FTI vs DMSO, densitometry
Procedure: as §3, §4

[31] = tested on: AsPc1; experiment: Western blot of phospho-histone H2Ax induction; type: cell-based; details: 72 hours, 1000 nM FTI vs DMSO, densitometry
Procedure: as §3, §4

[32] = tested on: T47D; experiment: Western blot of phospho-histone H2Ax induction; type: cell-based; details: 72 hours, 1000 nM FTI vs DMSO, densitometry
Procedure: as §3, §4

[33] = tested on: sensitive cell lines; experiment: Western blot of phospho-histone H2Ax induction; type: cell-based; details: 72 hours, 1000 nM
Procedure: as §3, §4

[34] = Homo sapiens, 336 h, 14 days, read-out: Lonafarnib IC50

NC(=O)N1CCC(CC(=O)N2CCC([C@H]3c4ncc(Br)cc4CCc4cc(Cl)cc(Br)c43)CC2)CC1 [Lonafarnib, lonafarnib]
IC50 ([1]; Homo sapiens, MIA PaCa-2, 336 h, 14 days, read-out: Lonafarnib IC50): 240 nM
Cells designated sensitive (S) or resistant (R) to lonafarnib [1]: (S)
IC50 ([2]; Homo sapiens, PANC-1, 336 h, 14 days, read-out: Lonafarnib IC50): 440 nM
Cells designated sensitive (S) or resistant (R) to lonafarnib [2]: (S)
IC50 [3, 34]: 100 nM
Cells designated sensitive (S) or resistant (R) to lonafarnib [3]: (S)
Cells designated sensitive (S) or resistant (R) to lonafarnib [4]: (S)
IC50 ([4]; Homo sapiens, COLO 205, 336 h, 14 days, read-out: Lonafarnib IC50): 330 nM
Cells designated sensitive (S) or resistant (R) to lonafarnib [5]: (R)
IC50 ([5]; Homo sapiens, DU-145, 336 h, 14 days, read-out: Lonafarnib IC50): 1600 nM
IC50 ([6]; Homo sapiens, SK-OV-3, 336 h, 14 days, read-out: Lonafarnib IC50): 2000 nM
Cells designated sensitive (S) or resistant (R) to lonafarnib [6]: (R)
IC50 [7, 34]: 10 nM
Cells designated sensitive (S) or resistant (R) to lonafarnib [7]: (S)
Cells designated sensitive (S) or resistant (R) to lonafarnib [8]: (R)
IC50 ([8]; Homo sapiens, HT-29, 336 h, 14 days, read-out: Lonafarnib IC50): 940 nM
Cells designated sensitive (S) or resistant (R) to lonafarnib [9]: (S)
IC50 [9, 34]: 80 nM
IC50 ([10]; Homo sapiens, SNB-19, 336 h, 14 days, read-out: Lonafarnib IC50): 230 nM
Cells designated sensitive (S) or resistant (R) to lonafarnib [10]: (S)
Cells designated sensitive (S) or resistant (R) to lonafarnib [11]: (S)
IC50 [11, 34]: 320 nM
IC50 ([12]; Homo sapiens, SNB-75, 336 h, 14 days, read-out: Lonafarnib IC50): > 3000 nM
Cells designated sensitive (S) or resistant (R) to lonafarnib [12]: (R)
Cells designated sensitive (S) or resistant (R) to lonafarnib [13]: (R)
IC50 [13, 34]: 1000 nM
IC50 ([14]; 336 h, 14 days, read-out: Lonafarnib IC50): 350 nM
Cells designated sensitive (S) or resistant (R) to lonafarnib [14]: (S)
IC50 [15, 34]: 1800 nM
Cells designated sensitive (S) or resistant (R) to lonafarnib [15]: (R)
IC50 [16, 34]: 10 nM
Cells designated sensitive (S) or resistant (R) to lonafarnib [16]: (S)
phospho-histone H2Ax expression upon treatment [17]: induced to detectable levels
induction of phospho-histone H2Ax [18]: 2.3 fold
induction of phos-histone H2Ax upon treatment [19]: no detectable induction
phospho-histone H2Ax expression upon treatment [20]: induced to detectable levels
induction of phos-histone H2Ax upon treatment [21]: no detectable induction
induction of phospho-histone H2Ax (difference in OD values) [22]: 1 fold
induction of phospho-histone H2Ax (difference in OD values) [23]: 1 fold
induction of phospho-histone H2Ax [24]: 2.2 fold
induction of phospho-histone H2Ax (difference in OD values) [25]: 1 fold
phospho-histone H2Ax expression upon treatment [26]: induced to detectable levels
induction of phospho-histone H2Ax [27]: 6.5 fold
phospho-histone H2Ax expression upon treatment [28]: induced to detectable levels
induction of phospho-histone H2Ax [29]: 4.3 fold
induction of phospho-histone H2Ax (difference in OD values) [30]: 1 fold
induction of phospho-histone H2Ax (difference in OD values) [31]: 1 fold
induction of phospho-histone H2Ax (difference in OD values) [32]: 1 fold

NC(=O)N1CCC(CC(=O)N2CCC(C3c4ncc(Br)cc4CCc4cc(Cl)cc(Br)c43)CC2)CC1 (single isomer, unassigned) [inactive enantiomer of lonafarnib]
phosphorylation of histone-H2Ax upon treatment [33]: does not induce
